We go through nine molecules from ChEMBL document CHEMBL1139217, “Development of dihydropyridone indazole amides as selective Rho-kinase inhibitors” (J Med Chem, 2007).

Data set [1] deals with Rho-associated protein kinase 1 (Homo sapiens, UniProt Q13464). Description: Inhibition of human recombinant ROCK1 expressed in Sf9 cells […].
A short description of data set [2]: Cmax in Sprague-Dawley rat at 0.9 mg/kg, iv. It counts as ADME, organism-based. The arrangement: dose 0.9 mg/kg, route intravenous. The settings on record: in vivo.
Data set [3] concerns the target Ribosomal protein S6 kinase alpha-1 (Homo sapiens, UniProt Q15418). Nature of the data set: Inhibition of RSK1.
Data set [4] is described as follows: Volume of distribution in Sprague-Dawley rat at 0.9 mg/kg. The arrangement: dose 0.9 mg/kg. Conditions: in vivo, read-out: Vdss. It counts as ADME, organism-based.
A short description of data set [5]: Oral bioavailability in Sprague-Dawley rat at 0.9 mg/kg, po. The settings on record: in vivo. It counts as ADME, organism-based.
Data set [6] is described as follows: Clearance in Sprague-Dawley rat at 0.9 mg/kg. It counts as ADME, organism-based. Details: dose 0.9 mg/kg. Conditions: in vivo.
The target in data set [7] is Ribosomal protein S6 kinase beta-1 (Homo sapiens, UniProt P23443). Description: Inhibition of p70S6K.
A short description of data set [8]: Half life in Sprague-Dawley rat at 0.9 mg/kg. In kind it is ADME, organism-based. The arrangement: dose 0.9 mg/kg. The settings on record: in vivo.
Data set [9] can be described thus: Oral bioavailability in Sprague-Dawley rat at 1.3 mg/kg, po. Conditions: in vivo. It counts as ADME, organism-based.
Data set [10] can be described thus: Clearance in Sprague-Dawley rat at 1.3 mg/kg. It counts as ADME, organism-based. Details: dose 1.3 mg/kg. The settings on record: in vivo.
Data set [11] is described as follows: Cmax in Sprague-Dawley rat at 1.3 mg/kg, iv. Conditions: in vivo. Details: dose 1.3 mg/kg, route intravenous. It counts as ADME, organism-based.
Another data set concerns Thoracic aorta. Nature of the data set: Dilatory activity against phenylephrine-induced contraction of Sprague-Dawley rat thoracic aorta. It counts as functional, tissue-based.
Data set [12] can be described thus: Volume of distribution in Sprague-Dawley rat at 1.3 mg/kg. It counts as ADME, organism-based. Details: dose 1.3 mg/kg. Conditions: in vivo, read-out: Vdss.
Data set [13] in a line: Half life in Sprague-Dawley rat at 1.3 mg/kg. It counts as ADME, organism-based. The arrangement: dose 1.3 mg/kg. Conditions: in vivo.
Data set [14] in a line: Half life in Sprague-Dawley rat at 1.7 mg/kg. It counts as ADME, organism-based. The arrangement: dose 1.7 mg/kg. Conditions: in vivo.
Data set [15] in a line: Volume of distribution in Sprague-Dawley rat at 1.7 mg/kg. Details: dose 1.7 mg/kg. The settings on record: in vivo, read-out: Vdss. It counts as ADME, organism-based.
Data set [16] is described as follows: Cmax in Sprague-Dawley rat at 1.7 mg/kg, iv. It counts as ADME, organism-based. The arrangement: dose 1.7 mg/kg, route intravenous. Conditions: in vivo.
Data set [17] is described as follows: Clearance in Sprague-Dawley rat at 1.7 mg/kg. It counts as ADME, organism-based. Details: dose 1.7 mg/kg. Conditions: in vivo.
Data set [18] is described as follows: Oral bioavailability in Sprague-Dawley rat at 1.7 mg/kg, po. In kind it is ADME, organism-based. Conditions: in vivo.
Data set [19] is described as follows: Half life in Sprague-Dawley rat at 1.6 mg/kg. It counts as ADME, organism-based. The arrangement: dose 1.6 mg/kg. The settings on record: in vivo.
Data set [20] is described as follows: Volume of distribution in Sprague-Dawley rat at 1.6 mg/kg. In kind it is ADME, organism-based. Details: dose 1.6 mg/kg. Conditions: in vivo, read-out: Vdss.
Data set [21] in a line: Clearance in Sprague-Dawley rat at 1.6 mg/kg. In kind it is ADME, organism-based. Details: dose 1.6 mg/kg. The settings on record: in vivo.
A short description of data set [22]: Cmax in Sprague-Dawley rat at 1.6 mg/kg, iv. In kind it is ADME, organism-based. The arrangement: dose 1.6 mg/kg, route intravenous. The settings on record: in vivo.
Data set [23] can be described thus: Oral bioavailability in Sprague-Dawley rat at 1.6 mg/kg, po. In kind it is ADME, organism-based. The settings on record: in vivo.
Data set [24] can be described thus: Half life in Sprague-Dawley rat at 1.8 mg/kg. It counts as ADME, organism-based. The arrangement: dose 1.8 mg/kg. The settings on record: in vivo.
Data set [25] in a line: Cmax in Sprague-Dawley rat at 1.8 mg/kg, iv. In kind it is ADME, organism-based. The arrangement: dose 1.8 mg/kg, route intravenous. The settings on record: in vivo.
The test system of a further data set is Rattus norvegicus. Description: Decrease in mean arterial pressure in spontaneously hypertensive rat at 3 mg/kg, po. It counts as functional, organism-based. Details: dose 3 mg/kg. Conditions: Artery.
The nature of data set [26]: Clearance in Sprague-Dawley rat at 1.8 mg/kg. It counts as ADME, organism-based. The arrangement: dose 1.8 mg/kg. The settings on record: in vivo.
Data set [27] can be described thus: Plasma concentration in spontaneously hypertensive rat at 3 mg/kg after 8 hrs. In kind it is ADME, organism-based. Details: dose 3 mg/kg.
Data set [28] in a line: Oral bioavailability in Sprague-Dawley rat at 1.8 mg/kg, po. In kind it is ADME, organism-based. Conditions: in vivo.
Data set [29] can be described thus: Plasma concentration in spontaneously hypertensive rat at 3 mg/kg after 0.5 hrs. In kind it is ADME, organism-based. Details: dose 3 mg/kg.
Data set [30] can be described thus: Volume of distribution in Sprague-Dawley rat at 1.8 mg/kg. In kind it is ADME, organism-based. Details: dose 1.8 mg/kg. Conditions: in vivo, read-out: Vdss.
Data set [31] in a line: Plasma concentration in spontaneously hypertensive rat at 3 mg/kg after 2 hrs. It counts as ADME, organism-based. Details: dose 3 mg/kg.
Data set [32] is described as follows: Plasma concentration in spontaneously hypertensive rat at 3 mg/kg after 1 hr. It counts as ADME, organism-based. Details: dose 3 mg/kg.
Data set [33] in a line: Plasma concentration in spontaneously hypertensive rat at 3 mg/kg after 4 hrs. In kind it is ADME, organism-based. The arrangement: dose 3 mg/kg.
The nature of data set [34]: Plasma concentration in spontaneously hypertensive rat at 3 mg/kg after 24 hrs. Details: dose 3 mg/kg. It counts as ADME, organism-based.
Data set [35] in a line: Clearance in Sprague-Dawley rat. In kind it is ADME, organism-based. The settings on record: in vivo.

Sequence of Ribosomal protein S6 kinase alpha-1 (Q15418 whole entry): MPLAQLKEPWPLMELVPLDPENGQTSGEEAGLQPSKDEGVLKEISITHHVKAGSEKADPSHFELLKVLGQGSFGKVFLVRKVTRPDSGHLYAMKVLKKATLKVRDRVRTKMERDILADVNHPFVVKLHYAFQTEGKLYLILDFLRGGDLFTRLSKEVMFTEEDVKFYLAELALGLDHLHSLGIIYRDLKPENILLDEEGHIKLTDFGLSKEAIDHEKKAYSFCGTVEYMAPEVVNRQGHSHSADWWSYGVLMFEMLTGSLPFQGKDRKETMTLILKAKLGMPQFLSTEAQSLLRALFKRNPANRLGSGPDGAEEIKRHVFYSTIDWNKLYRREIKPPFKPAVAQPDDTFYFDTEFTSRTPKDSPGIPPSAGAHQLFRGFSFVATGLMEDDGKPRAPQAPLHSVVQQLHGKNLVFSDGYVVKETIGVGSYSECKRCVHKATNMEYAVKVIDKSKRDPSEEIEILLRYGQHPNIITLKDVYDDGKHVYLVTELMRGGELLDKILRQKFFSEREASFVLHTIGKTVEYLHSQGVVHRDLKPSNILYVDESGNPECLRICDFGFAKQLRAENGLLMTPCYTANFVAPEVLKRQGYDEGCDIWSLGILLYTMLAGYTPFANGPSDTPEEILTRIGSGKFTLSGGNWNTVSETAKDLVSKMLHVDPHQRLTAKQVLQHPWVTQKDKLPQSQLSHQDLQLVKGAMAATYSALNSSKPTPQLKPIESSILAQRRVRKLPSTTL
Sequence of Ribosomal protein S6 kinase beta-1 (P23443 whole entry): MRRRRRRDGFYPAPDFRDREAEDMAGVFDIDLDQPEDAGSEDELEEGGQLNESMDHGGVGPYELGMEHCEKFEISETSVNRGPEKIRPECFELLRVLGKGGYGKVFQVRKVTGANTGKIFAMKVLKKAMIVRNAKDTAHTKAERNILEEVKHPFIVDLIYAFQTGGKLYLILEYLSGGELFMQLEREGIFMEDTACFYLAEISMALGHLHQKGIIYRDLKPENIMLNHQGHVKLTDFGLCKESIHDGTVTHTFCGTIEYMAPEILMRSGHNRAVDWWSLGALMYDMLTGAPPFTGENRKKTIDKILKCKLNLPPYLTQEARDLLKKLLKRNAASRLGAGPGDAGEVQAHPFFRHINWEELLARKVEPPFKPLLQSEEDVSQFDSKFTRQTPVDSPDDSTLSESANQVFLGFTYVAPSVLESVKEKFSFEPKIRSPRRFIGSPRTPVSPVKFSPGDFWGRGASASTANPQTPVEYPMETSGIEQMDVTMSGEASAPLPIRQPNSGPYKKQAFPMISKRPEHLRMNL
Sequence of Rho-associated protein kinase 1 (Q13464 whole entry): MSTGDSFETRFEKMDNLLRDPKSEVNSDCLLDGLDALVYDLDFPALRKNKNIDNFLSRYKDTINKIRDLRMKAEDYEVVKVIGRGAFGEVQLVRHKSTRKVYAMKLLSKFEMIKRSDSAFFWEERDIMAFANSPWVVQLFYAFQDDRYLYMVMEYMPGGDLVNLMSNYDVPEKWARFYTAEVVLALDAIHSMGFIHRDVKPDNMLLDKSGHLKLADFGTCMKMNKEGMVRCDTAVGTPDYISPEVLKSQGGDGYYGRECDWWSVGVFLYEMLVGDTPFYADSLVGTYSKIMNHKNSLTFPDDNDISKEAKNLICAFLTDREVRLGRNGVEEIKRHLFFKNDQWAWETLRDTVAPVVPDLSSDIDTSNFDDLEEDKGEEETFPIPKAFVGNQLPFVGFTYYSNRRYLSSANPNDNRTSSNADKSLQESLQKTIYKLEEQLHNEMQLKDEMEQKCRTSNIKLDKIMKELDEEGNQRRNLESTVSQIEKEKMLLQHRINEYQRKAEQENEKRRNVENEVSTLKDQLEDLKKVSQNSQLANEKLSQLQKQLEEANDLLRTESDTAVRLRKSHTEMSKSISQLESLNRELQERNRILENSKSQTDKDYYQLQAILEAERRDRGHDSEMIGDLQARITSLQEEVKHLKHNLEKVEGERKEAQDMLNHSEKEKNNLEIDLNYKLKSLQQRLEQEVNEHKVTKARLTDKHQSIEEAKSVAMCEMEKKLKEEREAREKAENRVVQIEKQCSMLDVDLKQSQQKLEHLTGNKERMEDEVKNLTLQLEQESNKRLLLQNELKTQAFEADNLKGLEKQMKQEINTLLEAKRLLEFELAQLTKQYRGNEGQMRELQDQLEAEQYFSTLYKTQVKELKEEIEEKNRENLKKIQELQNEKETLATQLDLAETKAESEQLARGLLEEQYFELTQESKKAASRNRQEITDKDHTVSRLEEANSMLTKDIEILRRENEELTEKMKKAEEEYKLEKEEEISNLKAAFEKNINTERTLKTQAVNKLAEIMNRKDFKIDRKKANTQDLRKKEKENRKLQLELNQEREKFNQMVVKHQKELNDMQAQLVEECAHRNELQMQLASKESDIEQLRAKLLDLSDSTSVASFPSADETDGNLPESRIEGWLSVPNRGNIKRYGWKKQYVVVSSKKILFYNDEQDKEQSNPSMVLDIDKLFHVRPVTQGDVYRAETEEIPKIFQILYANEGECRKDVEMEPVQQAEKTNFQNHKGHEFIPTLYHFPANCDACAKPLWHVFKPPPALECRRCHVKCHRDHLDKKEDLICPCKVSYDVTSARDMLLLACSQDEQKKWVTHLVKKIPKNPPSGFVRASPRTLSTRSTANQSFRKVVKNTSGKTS

In general, IC50 refers to the concentration needed to halve the response being measured. What is called Cmax is the highest concentration seen after dosing. As usually defined, the bioavailability is dose-corrected exposure relative to a reference, in per cent. Higher therefore signals good availability. For orientation: clearance means the volume of plasma or blood freed of the substance per unit of time. A lower clearance goes with a low capacity for elimination. The half-life is the time needed for the level to fall by half in the phase considered. With `CC1=C(C(=O)Nc2cc(Cl)c3[nH]ncc3c2)C(c2ccc(C(F)(F)F)cc2)CC(=O)N1` (stereo unspecified) [GSK-466317A], the values for the IC50 in data set [1], in [3] and in data set [7] were 8 nM, 90 nM and 590 nM, respectively. The peak level in data set [2] (Cmax) was 424 ng/mL. Further, the Vd in data set [4] was determined as 3.9 L/kg. This molecule gave a bioavailability in data set [5] of 29%. The clearance in data set [6] was determined as 81 mL/min/kg. Besides, the half-life in [8] is 1.2 h.

Turning to `CC1=C(C(=O)Nc2ccc3[nH]nc(C)c3c2)C(c2ccc(C(F)(F)F)cc2)CC(=O)N1` (stereo unspecified) [GSK-466314A], the bioavailability in [9] came to 18%. The molecule also showed a clearance in data set [10] of 24 mL/min/kg. The IC50 in data set [1] was 9 nM; in [3], 1950 nM; in the data set on Thoracic aorta, 130 nM; in [7] it was 4790 nM. This molecule came in with a Cmax in data set [11] of 672 ng/mL. Moreover, the Vd in [12] is 2.8 L/kg. For the same molecule, the half-life in [13] is 2 h.

On to `CC1=C(C(=O)Nc2ccc3[nH]ncc3c2)C(c2ccc3ccccc3c2)CC(=O)N1` (stereo unspecified) [GSK-270822A], for which the half-life in data set [14] is 0.9 h. Also, the half-inhibitory concentration (IC50) in data set [1] is 9 nM; in [3] it was 1100 nM; in the data set with Thoracic aorta, 76 nM; in data set [7], 1550 nM. Besides, in data set [15], the Vd amounted to 1.8 L/kg. The same molecule returned a Cmax in data set [16] of 700 ng/mL. In addition, the clearance in data set [17] amounted to 45 mL/min/kg. In addition, the bioavailability in data set [18] came to 13%.

On to `CC1=C(C(=O)Nc2ccc3[nH]ncc3c2)C(c2ccc(F)cc2)CC(=O)N1` (stereo unspecified), for which the 50% inhibitory concentration (IC50) in [1] stood at 51 nM; in data set [3], 1410 nM; with Thoracic aorta, 200 nM; in [7] it was 1100 nM. This molecule also gave a half-life in data set [19] of 1 h. The Vd in data set [20] came to 2.1 L/kg. The molecule further had a clearance in [21] of 47 mL/min/kg. The molecule further showed a Cmax in data set [22] of 668 ng/mL. Further, in [23], the bioavailability turned out to be 14%.

Consider `CC1=C(C(=O)Nc2ccc3[nH]ncc3c2)C(c2ccc(Cl)c(Cl)c2)CC(=O)N1` (stereo unspecified) [GSK-299115A], for which the concentration for half-maximal inhibition (IC50) in data set [1] was found to be 8 nM; in data set [3], 620 nM; in data set [7], 560 nM. The Cmax in [2] came to 334 ng/mL. Besides, in data set [4], the Vd is 2.4 L/kg. The bioavailability in data set [5] was determined as 1%. The same molecule yielded a clearance in [6] of 57 mL/min/kg. The molecule further gave a half-life in data set [8] of 0.8 h.

For `CC1=C(C(=O)Nc2ccc3[nH]ncc3c2)C(c2ccc(C(F)(F)F)cc2)CC(=O)N1` (stereo unspecified), the IC50 stood at 5 nM in data set [1], 740 nM in data set [3] and 39 nM in the data set on Thoracic aorta. For the same molecule, the concentration in data set [2] peaked (Cmax) at 315 ng/mL. Moreover, the Vd in [4] worked out at 2.3 L/kg. The molecule further showed a bioavailability in data set [5] of 22%. In data set [6], this molecule displayed a clearance of 51 mL/min/kg. The molecule also gave a half-life in data set [8] of 0.7 h.

As to `CC1=C(C(=O)Nc2ccc3[nH]ncc3c2F)C(c2ccc(C(F)(F)F)cc2)CC(=O)N1` (stereo unspecified), the 50% inhibitory concentration (IC50) in data set [1] was 2500 nM; in [3], over 10000 nM; in [7], over 10000 nM.

In the case of `CC1=C(C(=O)Nc2cc3cn[nH]c3cc2F)C(c2ccc(C(F)(F)F)cc2)CC(=O)N1` (stereo unspecified), the half-life in [24] was 1 h. In [25], this molecule gave a Cmax of 1560 ng/mL. Also, the Activity entry in the data set on Rattus norvegicus was “Dose-dependent effect”. For the same molecule, the IC50 in [1] was 14 nM; in data set [3] it was 780 nM; in the data set on Thoracic aorta, 190 nM; in data set [7], 1940 nM. The same molecule showed a clearance in data set [26] of 25 mL/min/kg. The molecule also returned a concentration at 8 h in data set [27] of 74 ng/mL. In data set [28], this molecule displayed a bioavailability of 61%. For the same molecule, the concentration at 0.5 h in data set [29] came out at 193 ng/mL. Also, the Vd in data set [30] worked out at 1.4 L/kg. This molecule showed a concentration at 2 h in data set [31] of 190 ng/mL. Further, the concentration at 1 h in [32] was found to be 192 ng/mL. In data set [33], this molecule showed a concentration at 4 h of 110 ng/mL. The molecule also yielded a concentration at 24 h in [34] of 2 ng/mL.

Regarding `CC1=C(C(=O)Nc2ccc3[nH]ncc3c2)C(c2ccc(F)cc2)NC(=O)N1` (stereo unspecified) [GSK-180736A], the IC50 in data set [1] is 14 nM; in [3] it was 3100 nM; with Thoracic aorta it was 760 nM; in [7], 2850 nM. The concentration in data set [11] peaked (Cmax) at 567 ng/mL. For the same molecule, in [35], the clearance is 50 mL/min/kg.
